According to paper PMC6611404 (Frontiers in Aging Neuroscience, 2019):
Where “and” joins values, the source holds several entries; their conditions need not be identical. Equal values may be shown once. Entries after “also recorded” stand apart in the source; their conditions may differ. Where a name gives a salt, the structure may show the parent alone. Read-outs that look alike come from different tables or passages of the source.

What was measured:
[1] = test system: mice; assay: CNS-activity and acute toxicity test; conditions: mice, intraperitoneal
Procedure: (§1) Adult male NMRI mice (3 months old, weighing 35–40 g) from Janvier labs (Le Genest-Saint-Isle, France) were used to perform experiments. Mice were housed by ten in standard polycarbonate cages in standard controlled conditions (22 ± 2°C, 55 ± 10% humidity) with a reversed 12 h light/dark cycle (light on at 7 pm). Food and water were available ad libitum in the home cage.
(§2) The approximate DL50 of the compounds were also calculated through the quantification of mortality after 24 h. Amphetamine (2 mg/kg), chlorpromazine (10 mg/kg) were used as a stimulant and depressive references, respectively.
(§3) Amphetamine, (+)-α-Methylphenethylamine hemisulfate, chlorpromazine hydrochloride, imipramine hydrochloride and scopolamine hydrobromide were purchased from Sigma (France). All those pharmacological compounds were dissolved in NaCl 0.9% as the vehicle were administered IP 30 min before tests, except scopolamine which was subcutaneously administered 20 min before spontaneous alternation test.

[2] = biological target: T1, (h)5-HT6R (Homo sapiens, UniProt P50406); assay: Reversion of the basal 5-HT6R-induced cAMP production (constitutive activity) in COS-7 cells; assay type: cell-based; conditions: for cAMP production in the absence of agonist (inverse agonist activity): 10^−4M, absence of 5-HT; for (h)5-HT6R Profile: cAMP
T1 construct: HA; expressed in transfected cells; host or cells: COS-7 cells, transient electroporation
Procedure: (§4) COS-7 cells were grown in Dulbecco’s modified Eagle medium (DMEM) supplemented with 10% dialyzed fetal calf serum (dFCS) and antibiotics. Cells were transiently transfected by electroporation with plasmids encoding HA-tagged 5-HT4R (100 ng/10^6 cells) or HA-tagged 5-HT6R (70 ng/10^6 cells or 300 ng/10^6 cells), then seeded in 96-well plates (16,000 cells/well).
Reversion of the basal 5-HT6R-induced cAMP production: the 5-HT6R expression was augmented by transfection of higher quantities of cDNA (300 ng/10^6 cells) to increase the basal cAMP production linked to the constitutive activity of the receptor. […] This experiment is performed in the absence of 5-HT. After 10 min at 37°C, cells were then lysed by addition of 100 μL of Triton-X100 (0.1%).
(§5) Quantification of cAMP production was performed by HTRF® by using the cAMP Dynamic kit (Cisbio Bioassays) according to the manufacturer’s instructions.

[3] = biological target: T2, human 5-HT6 receptors (Homo sapiens, UniProt P50406); assay: [3H]-LSD competition binding on membranes of HEK-293 cells expressing human 5-HT6 receptors; conditions: for inhibition / inhibition at 0.0025 µM: 2.5 nM [3H]-LSD; for Ki: (h)5-HT6R Ki, n = 3, Ki ± SD
T2 construct: purchased Perkin Elmer RBHS6M; host or cells: HEK-293 cells, transient expression (membranes)
Procedure: Drugs were evaluated through their possibility to compete for the binding of [^3H]-LSD on membranes of HEK-293 cells transiently expressing the human 5-HT6 receptors (ref. RBHS6M, Perkin Elmer). […] At the end of the incubation, the homogenates were then filtered through Whatman GF/C filters and washed five times with ice-cold 25 mM Tris-HCl buffer. Non-specific binding was evaluated in the presence of 100 μM serotonin. Radioactivity associated to proteins was then quantified and expressed as the percentage of inhibition of the drugs under study.
(§6) For some of these compounds, affinity constants were calculated from five-point inhibition curves using the GraphPad Prism 6 software and expressed as Ki ± SD.

[4] = biological target: T1, (h)5-HT6R; assay: Blockade of the 5-HT6R-induced cAMP production in transfected COS-7 cells; assay type: cell-based; conditions: for (h)5-HT6R % control antagonist response: SB271046 as control 5-HT6R antagonist, n = 2
Procedure: as §4
Blockade of the 5-HT6R-induced cAMP production: 24 h after transfection, cells were exposed to the indicated concentrations of 5-HT6R ligands at 37°C in 50 μL of HBS. […] After 10 min at 37°C, cells were then lysed by addition of 100 μL of Triton-X100 (0.1%).
as §5

[5] = biological target: T3, AChE from human erythrocytes (Homo sapiens, UniProt P22303); assay: biochemical; conditions: for inhibition at 1 µM: read-out: (h)AChE % inhibition at 10^−6M
T3 construct: AChE from human erythrocytes; purchased Sigma Aldrich; host or cells: human erythrocytes (natural source)
Procedure: Acetylthiocholine iodide and 5,5-dithiobis-(2-nitrobenzoic) acid (DTNB) were purchased from Sigma Aldrich. AChE from human erythrocytes (buffered aqueous solution, ≥500 units/mg protein (BCA), Sigma Aldrich) was diluted in 20 mM HEPES buffer pH 8, 0.1% Triton X-100 such as to have enzyme solution with 0.25 unit/mL enzyme activity. In the procedure, 100 μL of 0.3 mM DTNB dissolved in phosphate buffer pH 7.4 was added into the 96-well plate followed by 50 μL of test compound solution and 50 μL of enzyme (0.05 U final). After 5 min of preincubation at 25°C, the reaction was then initiated by the injection of 50 μL of 10 mM acetylthiocholine iodide solution. […] Assays were performed with a blank containing all components except acetylthiocholine, in order to account for non-enzymatic reaction. The reaction slopes were compared and the percent inhibition due to the presence of test compounds was calculated by the following expression: 100 − (vi/v0 × 100) where vi is the rate calculated in the presence of inhibitor and v0 is the enzyme activity.

[6] = biological target: T4, Human 5-HT4R (Homo sapiens, UniProt Q13639); assay: [3H]-GR113808 competition binding on 5-HT4(b) membrane preparations; conditions: for inhibition / inhibition at 0.0002 µM: 0.2 nM [3H]-GR113808; for Ki: (h)5-HT4R Ki, n = 3, Ki ± SD
T4 construct: purchased Eurofins HTS110M
Procedure: At the end of the incubation, homogenates were filtered through Whatman GF/C filters (Alpha Biotech) presoaked with 0.5% polyethylenimine using a Brandel cell harvester. Filters were subsequently washed three times with 1 mL of ice-cold 25 mM Tris buffer (pH 7.4, 4°C). Non-specific binding was evaluated in parallel in the presence of 30 μM serotonin.
as §6

[7] = biological target: T5, (h)5-HT4(a)R (Homo sapiens, UniProt Q13639); assay: 5-HT4R-induced cAMP production in transfected COS-7 cells; assay type: cell-based
T5 construct: HA; expressed in transfected cells; host or cells: COS-7 cells, transient electroporation
Procedure: as §4
After 10 min, cells were then lysed by addition of the same volume of Triton-X100 (0.1%).
as §5

[8] = test system: mice; assay: Locomotor activity (actimeter); assay type: in vivo; conditions: IP 30 min before test, 1, 3 and 10 mg/kg, 30 min recording
Procedure: as §1, §3

[9] = CNS-activity and acute toxicity test; conditions: male, NMRI, mouse, in vivo, ip
Procedure: as §1, §2, §3

[10] = test system: mice; assay: Spatial working memory: scopolamine-induced deficit of spontaneous alternation in the Y maze; assay type: in vivo, NMRI mice; conditions: IP 30 min before test, 0.3, 1, 3 mg/kg, scopolamine 0.5 mg/kg SC, effect at doses starting from 0.3 mg/kg
Procedure: as §1
An arm entry was scored when all four feet crossed into the arm. An alternation was defined as entries into all three arms on a consecutive occasion.
as §3

[11] = read-out: (h)5-HT6R % inhibition at 10^−8M, 10^−8M
[12] = read-out: (h)5-HT6R % inhibition at 10^−6M, 10^−6M
[13] = read-out: (h)5-HT4R % inhibition at 10^−6M, 10^−6M
[14] = read-out: (h)5-HT4R % inhibition at 10^−8M, 10^−8M

T1 sequence (P50406 whole entry): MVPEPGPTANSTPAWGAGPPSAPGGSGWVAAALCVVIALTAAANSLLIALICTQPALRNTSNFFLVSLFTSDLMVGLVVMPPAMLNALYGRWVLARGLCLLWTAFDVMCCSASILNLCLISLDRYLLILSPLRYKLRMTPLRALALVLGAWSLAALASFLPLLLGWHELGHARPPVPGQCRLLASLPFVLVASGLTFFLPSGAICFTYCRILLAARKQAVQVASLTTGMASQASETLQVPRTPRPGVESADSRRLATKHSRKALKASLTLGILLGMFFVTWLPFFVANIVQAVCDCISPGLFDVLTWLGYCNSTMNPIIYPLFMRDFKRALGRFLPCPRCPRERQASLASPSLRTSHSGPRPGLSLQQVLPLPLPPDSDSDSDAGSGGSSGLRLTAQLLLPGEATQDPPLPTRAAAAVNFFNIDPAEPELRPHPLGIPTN
T2 sequence (P50406 whole entry): as above
T4 sequence (Q13639 whole entry): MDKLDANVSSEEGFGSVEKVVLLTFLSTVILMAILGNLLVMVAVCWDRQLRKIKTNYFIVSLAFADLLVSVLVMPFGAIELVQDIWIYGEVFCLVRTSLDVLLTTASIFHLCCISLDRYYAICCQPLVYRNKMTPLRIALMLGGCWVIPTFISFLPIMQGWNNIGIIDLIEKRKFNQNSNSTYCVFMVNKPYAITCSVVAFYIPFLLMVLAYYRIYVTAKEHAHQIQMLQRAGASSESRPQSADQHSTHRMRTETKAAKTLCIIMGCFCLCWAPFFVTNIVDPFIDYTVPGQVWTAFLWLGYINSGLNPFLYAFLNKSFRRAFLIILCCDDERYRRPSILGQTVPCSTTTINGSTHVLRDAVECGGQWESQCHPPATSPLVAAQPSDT
T3 sequence (P22303 other isoform, or with tags, fused parts or gaps): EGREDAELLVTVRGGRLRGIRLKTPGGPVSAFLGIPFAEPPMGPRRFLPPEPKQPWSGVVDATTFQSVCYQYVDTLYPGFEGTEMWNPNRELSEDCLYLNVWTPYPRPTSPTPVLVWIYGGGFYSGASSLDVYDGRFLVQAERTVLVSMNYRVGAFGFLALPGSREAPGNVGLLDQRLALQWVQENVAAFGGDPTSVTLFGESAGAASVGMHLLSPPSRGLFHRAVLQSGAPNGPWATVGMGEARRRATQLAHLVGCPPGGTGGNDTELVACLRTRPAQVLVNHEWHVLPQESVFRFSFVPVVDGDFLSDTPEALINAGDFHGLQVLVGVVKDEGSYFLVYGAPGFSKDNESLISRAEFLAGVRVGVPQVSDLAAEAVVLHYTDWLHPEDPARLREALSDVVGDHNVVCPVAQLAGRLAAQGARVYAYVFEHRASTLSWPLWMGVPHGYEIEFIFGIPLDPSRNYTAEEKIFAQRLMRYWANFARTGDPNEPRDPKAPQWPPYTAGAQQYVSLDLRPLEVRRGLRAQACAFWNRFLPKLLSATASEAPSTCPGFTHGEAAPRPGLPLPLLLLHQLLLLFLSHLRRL
T5 sequence (Q13639 1-387 isoform Q13639-2): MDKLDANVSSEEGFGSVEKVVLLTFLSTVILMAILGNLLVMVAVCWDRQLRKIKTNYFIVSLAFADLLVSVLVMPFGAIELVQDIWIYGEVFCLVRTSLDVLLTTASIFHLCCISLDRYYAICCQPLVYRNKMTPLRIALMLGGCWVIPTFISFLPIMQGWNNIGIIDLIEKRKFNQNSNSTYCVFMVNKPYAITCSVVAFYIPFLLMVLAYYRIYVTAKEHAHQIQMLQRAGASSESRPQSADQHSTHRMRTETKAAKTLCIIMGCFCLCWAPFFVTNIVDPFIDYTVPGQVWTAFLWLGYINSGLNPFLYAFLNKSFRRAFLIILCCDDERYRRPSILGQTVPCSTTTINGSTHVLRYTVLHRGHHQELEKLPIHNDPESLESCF

SMILES	inhibition [3, 11] [%]	IC50 ([5]; n = 2, read-out: (h)AChE IC50) [nM]	inhibition at 1 µM [5] [%]	inhibition [3, 12] [%]	inhibition [6, 13] [%]	inhibition [6, 14] [%]	further results
CN(C)CCCN1c2ccccc2Sc2ccc(Cl)cc21 [Chlorpromazine, chlorpromazine hydrochloride]							Symptoms (subtoxic doses) ([1]; 10 mg/kg, depressive reference): Hypoactivity; also recorded: Ataxia; also recorded: Sleep
Fc1ccc2c(CCNCc3cccc(OCC(F)(F)C(F)F)c3)c[nH]c2c1 [compound 2, idalopirdine, reference compound]	88						cAMP production in the absence of agonist (inverse agonist activity) [2]: decreased cAMP production below the basal; (h)5-HT6R Profile [2]: Inverse agonist; (h)5-HT6R % control antagonist response [4]: 101.2 ± 3.2 n = 2%
C[C@H](N)Cc1ccccc1 [Amphetamine, (+)-α-Methylphenethylamine hemisulfate]							Symptoms (subtoxic doses) ([1]; 2 mg/kg, stimulant reference): Hyperactivity; also recorded: Exopthalmy; also recorded: Irritability
COc1cc(N)c(Cl)cc1C(=O)CCC1CCN(Cc2ccccc2F)CC1 [5d, 1-(4-Amino-5-chloro-2-methoxyphenyl)-3-(1-(2-fluorobenzyl)piperidin-4-yl)propan-1-one]	21	102 ± 65.4	96	68	94	10	
COc1cc(N)c(Cl)cc1C(=O)CCC1CCN(Cc2ccccc2O)CC1 [5h, 1-(4-Amino-5-chloro-2-methoxyphenyl)-3-(1-(2-hydroxybenzyl)piperidin-4-yl)propan-1-one]	0	57.4 ± 9.4	94	24	98	10	
COc1cc(N)c(Cl)cc1C(=O)CCC1CCN(Cc2cccc(C)c2)CC1 [5k, 1-(4-Amino-5-chloro-2-methoxyphenyl)-3-(1-(3-methylbenzyl)piperidin-4-yl)propan-1-one]	9		89		98		IC50 ([5]; (h)AChE IC50, n = 2): 161 ± 43 nM; Ki [3]: 230 ± 49 nM; inhibition at 0.0025 µM [3, 12]: > 70%; Ki [6]: 168 ± 15 nM; inhibition at 0.0002 µM [6, 14]: ≥ 25%
COc1cc(N)c(Cl)cc1C(=O)CCC1CCN(Cc2cc(NC(C)=O)ccc2Br)CC1 [5r, N-(3-((4-(3-(4-Amino-5-chloro-2-methoxyphenyl)-3-oxopropyl)piperidin-1-yl)methyl)-4-bromophenyl) acetamide]	7		13	35	96	6	
COc1cc(N)c(Cl)cc1C(=O)CCC1CCN(Cc2ccccc2)CC1 [5a]	0		98	29	102	41	affinity for 5-HT6R (in words) [3]: devoid of such an activity
COc1cc(N)c(Cl)cc1C(=O)CCC1CCN(Cc2cccc(C)c2)CC1.O=C(O)/C=C/C(=O)O [compound 10, 1-(4-Amino-5-chloro-2-methoxyphenyl)-3-(1-(3-methylbenzyl)piperidin-4-yl)propan-1-one fumaric acid salt]		33.7 ± 1.7					EC50 [7]: 20 nM; (h)5-HT4(a)R % control agonist response ([7]; 5-HT as control 5-HT4R agonist, n = 2): 59.8 ± 2.5 n = 2%; (h)5-HT4(a)R Profile ([7]; cAMP, COS-7 cells): Partial agonist; cAMP production in the absence of agonist (inverse agonist activity) [2]: decreased cAMP production below the basal; (h)5-HT6R Profile [2]: Inverse agonist; Ki [3]: 219 ± 42 nM; Ki [6]: 210 ± 43 nM; IC50 [4]: 10 µM; (h)5-HT6R % control antagonist response [4]: 93.4 ± 1.8 n = 2%; Effect on spontaneous locomotor activity [8]: did neither modify spontaneous locomotor activity; LD50 at 24 h [9]: > 100 mg/kg; Symptoms (subtoxic doses) ([1]; 1–10–100 mg/kg): did not show any deleterious signs; also recorded: No symptoms; Effect on scopolamine-induced spontaneous alternation deficit [10]: anti-amnesic effect was observed
COc1cccc(CN2CCC(CCC(=O)c3cc(Cl)c(N)cc3OC)CC2)c1 [5l, 1-(4-Amino-5-chloro-2-methoxyphenyl)-3-(1-(3-methoxybenzyl)piperidin-4-yl)propan-1-one]	6		35	78	94	9	inhibitory effect towards AChE (in words) [5]: devoid of inhibitory effect towards AChE; affinity for 5-HT6R (in words) [3]: displayed affinity for 5-HT6R; Ki [3]: 265 ± 64 nM
COc1cc(N)c(Cl)cc1C(=O)CCC1CCN(Cc2cccc(F)c2)CC1 [5j, 1-(4-Amino-5-chloro-2-methoxyphenyl)-3-(1-(3-fluorobenzyl)piperidin-4-yl)propan-1-one]	9	91 ± 53.8	97	59	98	12	
COc1cc(N)c(Cl)cc1C(=O)CCC1CCN(Cc2cc(N)ccc2F)CC1 [5t, 1-(4-Amino-5-chloro-2-methoxyphenyl)-3-(1-(5-amino-2-fluorobenzyl)piperidin-4-yl)propan-1-one]	3	153 ± 19.9	79	65	98	18	
COc1cc(N)c(Cl)cc1C(=O)CCC1CCN(Cc2cccc(N)c2)CC1 [5m, 1-(4-Amino-5-chloro-2-methoxyphenyl)-3-(1-(3-aminobenzyl)piperidin-4-yl)propan-1-one]	31	41 ± 5	93		100		Ki [3]: 1150 ± 559 nM; inhibition at 0.0025 µM [3, 12]: > 70%; Ki [6]: 43 nM and 42.5 nM; inhibition at 0.0002 µM [6, 14]: ≥ 25%
COc1cc(N)c(Cl)cc1C(=O)CCC1CCN(Cc2ccc(C)cc2)CC1 [5q, 1-(4-Amino-5-chloro-2-methoxyphenyl)-3-(1-(4-methylbenzyl)piperidin-4-yl)propan-1-one]	21	450	87	21	100	24	
